Tests used:
MCF-7 tumours = details: cited from earlier work
breast cancer [1] = details: women whose breast cancer has progressed following tamoxifen therapy; cited from earlier work
estrogen receptor (ER) = details: relative to oestradiol equivalent of 1.0; cited from earlier work
breast cancer [2] = assay: treatment of breast cancer patients who failed previous aromatase inhibitor treatment; type: in vivo, human; details: patients previously treated with an aromatase inhibitor (optionally also a SERM) and failed
[3] = system: MCF-7 human breast cancer cells; details: MCF-7 cells, cited from earlier work; for reduction in MCF-7 cell numbers (inhibition): same conditions for fulvestrant and tamoxifen (tamoxifen: maximum)

Compound	duration of growth suppression of established MCF-7 tumours versus tamoxifen (MCF-7 tumours; established MCF-7 tumours, compared with tamoxifen treatment)	delay of tumourgenesis versus tamoxifen-treated mice (MCF-7 tumours; mice)	sensitivity of tamoxifen-resistant MCF-7 tumours to treatment (MCF-7 tumours; tumours grown out after long-term treatment with tamoxifen)	efficacy in phase II trial (breast cancer [1])	relative binding affinity for the estrogen receptor (ER) (estrogen receptor (ER))	sensitivity of breast cancer to further treatment (breast cancer [2])	IC50 ([3]; read-out: IC50, inhibitory effect on the growth of MCF-7 human breast cancer cells) [nM]	reduction in MCF-7 cell numbers (inhibition) [3] [%]
C[C@]12CC[C@@H]3c4ccc(O)cc4C[C@@H](CCCCCCCCC[S+]([O-])CCCC(F)(F)C(F)(F)F)[C@H]3[C@@H]1CC[C@@H]2O (stereo partly drawn) [fulvestrant, 7-alpha-[9-(4,4,5,5,5pentafluoropentylsulphiny)nonyl]-estra-1,3,5(10)-triene-3, 17βdiol]	twice as long	delayed to a greater extent	remain sensitive to fulvestrant treatment	demonstrated efficacy	0.89	sensitive to further treatment by fulvestrant	0.29	80
CC/C(=C(\c1ccccc1)c1ccc(OCCN(C)C)cc1)c1ccccc1 [tamoxifen]								≤ 50
oestradiol					1.0			

From patent US20110183949A1, “Use of Fulvestrant in the Treatment of Resistant Breast Cancer” (priority 2000, published 2011)
